Legend:
[1] = Organ uptake (biodistribution) of 99mTc activity in mice after intravenous administration; type: in vivo; settings: i.v.; for Organ uptake of 99mTc, Carcass / Organ uptake of 99mTc, Intestines / Organ uptake of 99mTc, Kidney / Organ uptake of 99mTc, Liver / Organ uptake of 99mTc, Lung / Organ uptake of 99mTc, Stomach / Organ uptake of 99mTc, Tail: average of four animals ± SD
Description: (§1) The ^99m Tc complex used for the animal studies was prepared in Example 6 following both methods of reduction, stannous chloride or dithionite. The ^99m Tc-MGHA complexes labeled by either reduction method were tested in animals. The mass concentrations of the ^99m Tc complex administered to test animals were approximately 0.04 mg/kg body weight for rabbits and 13.0 mg/kg body weight for mice. The radioactivity administered to rabbits and mice were about 0.5 mCi and 1.5 mCi respectively. The pH of the injectant solution was approximately 5 to 6.
Nonfasted male mice (1CR strain) weighing 20-24 grams were administered in the tail vein with 0.2 mL of a ^99m Tc-complex solution. At 15, 30, 60 minutes post administration groups of four animals were sacrificed by cervical dislocation and selected organs removed for ^99m Tc assay in a gross ionization counting chamber. The percentage of the injected dose corrected for ^99m Tc decay was calculated for the various organs at each sacrifice time.
A ^99m Tc-MGHA complex prepared via a dithionite reduction of ^99m TcO4^- of Example 6 was administered to female albino mice weighing 20-24 gm. The test drug was administered through the lateral tail vein at a mass dose of approximately 13.0 mg/kg in a volume of 0.2 mL. The corresponding radioactive dose administered to each animal was 1.5 mCi. After injection, groups of four animals were sacrificed (cervical dislocation) at 15, 30 and 60 minutes. The liver, kidney, lung, heart, stomach and intestines (small and large) were removed and assayed for ^99m Tc activity in a gross ionization counting chamber. Also, the tails and remaining carcasses were individually assayed for ^99m Tc activity.
Knowing the amount of ^99m Tc activity administered (assaying for ^99m Tc in the syringe before and after injection) and the amount assayed in the various organs, the percentage of injected dose (% ID) was calculated as: [formula] All activities (Ci) were initially corrected for ^99m Tc decay back to a fixed starting time using the standard first order differential equation for decay correction (see below): […]
where N0 and N1 are initial and final activities (Ci) respectively. The half-life (T1/2) for ^99m Tc decay is 6.02 hr. The value of t is the elapsed time (hrs.) for the correction.
The results of ^99m Tc uptake in various organs and tissues in mice administered ^99m Tc-MGHA labeled via a dithionite reduction is given in Table 1.
A ^99m Tc-MGHA complex prepared via a stannous chloride reduction of 99mTcO.sbsb.4^- of Example 6 was administered to female albino mice weighing 20-24 gm. The same methods and procedures given in Example 19 were used to calculate the % ID for each organ.

[2] = Gamma camera imaging / regional areas of interest in rabbits after intravenous administration; type: in vivo, rabbits (New Zealand White); settings: i.v.; for Gamma camera count densities (RAI): rabbits
Description: as §1
Nonanesthetized and nonfasted male rabbits (New Zealand White) weighing 3.0-3.5 kg were restrained in dorsal recumbancy approximately 2-3 cm from the face of the gamma camera. After intravenous administration of 0.1 mL of the ^99m Tc-labeled complex solution in the marginal ear vein, anterior images were stored by a dedicated computer during injection, and 5, 10, 15, 20 and 30 minutes following administration.
The ^99m Tc-complex prepared via a dithionate reduction of Example 6 was administered to male albino rabbits weighing 3.0-3.5 kg. The drug was injected into the marginal ear vein. The mass of drug administered was equivalent to ~0.04 mg/kg while the volume injected was 0.1 mL. The administered dose was ~0.5 mCi. Each test animal was restrained in dorsal recumbancy approximately 2-3 cm from the face of the gamma camera. Immediately after injection, 100-500 k counts were obtained from the gamma camera and stored on floppy disc. The computer controlled the maximum number of counts that could be stored per image. Sequential images were obtained and stored on disc at 5, 10, 15, 20 and 30 minutes following administration.
After all images were stored, quantitative image analysis was utilized to obtain count densities in regional areas of interest (RAI). The RAIs were delineated as distinct anatomical structures. Three distinct areas were observed.
A ^99m Tc-complex prepared via a stannous chloride reduction of Example 6 was administtered to male albino rabbits weighing 3.0-3.5 kg. […]

[3] = mice, dithionite reduction, 15 min.
[4] = mice, dithionite reduction, 30 min.
[5] = mice, dithionite reduction, 60 min.

CNC(=O)C1CC[S][99Tc-]23(=[O])[S]CC[N]2CC(=O)[N]13 [^99m Tc-MGHA, [2-[[1-(2mercaptoethyl)-2-(methylamino)-2-oxoethyl]-N-(2-mercaptoethyl)glycinato-N,N',S,S']oxotechnetate-99m]
Excretion of activity from the body ([1]; mice): rapid excretion of activity from the body
Total remaining activity (% injected dose) ([1]; mice, 30 minutes): approximately one-half of the injected dose
Organ uptake of 99mTc, Carcass ([1]; mice, SnCl2 reduction, 15 min.): 17.4 ± 2.8 % Injected Dose
Organ uptake of 99mTc, Intestines ([1]; mice, SnCl2 reduction, 15 min.): 28.7 ± 6.1 % Injected Dose
Organ uptake of 99mTc, Kidney ([1]; mice, SnCl2 reduction, 15 min.): 3.3 ± .9 % Injected Dose
Organ uptake of 99mTc, Liver ([1]; mice, SnCl2 reduction, 15 min.): 13.3 ± 5.4 % Injected Dose
Organ uptake of 99mTc, Lung ([1]; mice, SnCl2 reduction, 15 min.): .9 ± .4 % Injected Dose
Organ uptake of 99mTc, Stomach ([1]; mice, SnCl2 reduction, 15 min.): .3 ± .4 % Injected Dose
Organ uptake of 99mTc, Tail ([1]; mice, SnCl2 reduction, 15 min.): 1.4 ± .7 % Injected Dose
Organ uptake of 99mTc, Carcass ([1]; mice, SnCl2 reduction, 30 min.): 5.7 ± 2.9 % Injected Dose
Organ uptake of 99mTc, Intestines ([1]; mice, SnCl2 reduction, 30 min.): 27.3 ± 7.0 % Injected Dose
Organ uptake of 99mTc, Kidney ([1]; mice, SnCl2 reduction, 30 min.): 1.6 ± .4 % Injected Dose
Organ uptake of 99mTc, Liver ([1]; mice, SnCl2 reduction, 30 min.): 6.1 ± .9 % Injected Dose
Organ uptake of 99mTc, Lung ([1]; mice, SnCl2 reduction, 30 min.): .2 ± .2 % Injected Dose
Organ uptake of 99mTc, Stomach ([1]; mice, SnCl2 reduction, 30 min.): .6 ± .9 % Injected Dose
Organ uptake of 99mTc, Tail ([1]; mice, SnCl2 reduction, 30 min.): .14 ± .2 % Injected Dose
Organ uptake of 99mTc, Carcass ([1]; mice, SnCl2 reduction, 60 min.): 12.4 ± 5.1 % Injected Dose
Organ uptake of 99mTc, Intestines ([1]; mice, SnCl2 reduction, 60 min.): 29.3 ± 10.4 % Injected Dose
Organ uptake of 99mTc, Kidney ([1]; mice, SnCl2 reduction, 60 min.): 2.3 ± .8 % Injected Dose
Organ uptake of 99mTc, Liver ([1]; mice, SnCl2 reduction, 60 min.): 7.7 ± 2.0 % Injected Dose
Organ uptake of 99mTc, Lung ([1]; mice, SnCl2 reduction, 60 min.): .6 ± .3 % Injected Dose
Organ uptake of 99mTc, Stomach ([1]; mice, SnCl2 reduction, 60 min.): .1 ± .2 % Injected Dose
Organ uptake of 99mTc, Tail ([1]; mice, SnCl2 reduction, 60 min.): .7 ± .3 % Injected Dose
Kidney uptake of activity over time ([1]; mice, at the various time intervals examined): declining at the various time intervals examined
Organ uptake of 99mTc, Carcass [1, 3]: 21.9 ± 2.9 % Injected Dose
Organ uptake of 99mTc, Intestines [1, 3]: 16.8 ± 3.0 % Injected Dose
Organ uptake of 99mTc, Kidney [1, 3]: 3.1 ± .6 % Injected Dose
Organ uptake of 99mTc, Liver [1, 3]: 11.3 ± 1.0 % Injected Dose
Organ uptake of 99mTc, Lung [1, 3]: .9 ± .2 % Injected Dose
Organ uptake of 99mTc, Stomach [1, 3]: .3 ± .01 % Injected Dose
Organ uptake of 99mTc, Tail [1, 3]: 1.7 ± 1.0 % Injected Dose
Organ uptake of 99mTc, Carcass [1, 4]: 13.4 ± 5.3 % Injected Dose
Organ uptake of 99mTc, Intestines [1, 4]: 20.5 ± 2.0 % Injected Dose
Organ uptake of 99mTc, Kidney [1, 4]: 3.4 ± .5 % Injected Dose
Organ uptake of 99mTc, Liver [1, 4]: 7.6 ± .9 % Injected Dose
Organ uptake of 99mTc, Lung [1, 4]: .3 ± .1 % Injected Dose
Organ uptake of 99mTc, Stomach [1, 4]: .1 ± .1 % Injected Dose
Organ uptake of 99mTc, Tail [1, 4]: .3 ± .1 % Injected Dose
Organ uptake of 99mTc, Carcass [1, 5]: 18.3 ± 2.5 % Injected Dose
Organ uptake of 99mTc, Intestines [1, 5]: 16.9 ± 1.4 % Injected Dose
Organ uptake of 99mTc, Kidney [1, 5]: 3.9 ± .6 % Injected Dose
Organ uptake of 99mTc, Liver [1, 5]: 10.2 ± 1.6 % Injected Dose
Organ uptake of 99mTc, Lung [1, 5]: .5 ± .3 % Injected Dose
Organ uptake of 99mTc, Stomach [1, 5]: .8 ± .9 % Injected Dose
Organ uptake of 99mTc, Tail [1, 5]: 1.1 ± .4 % Injected Dose
Kidney uptake ([1]; mice, sacrifice times greater than 15 minutes post injection): little kidney uptake
Clearance of 99mTc activity out of the body ([1]; mice, within the first 15 minutes): fast clearance out of the body within the first 15 minutes
Suggested route of 99mTc clearance ([1]; test animals, indirect evidence): possible kidney clearance
Distinct areas observed in quantitative image analysis (RAI) ([2]; male albino rabbits, dithionite reduction, ~0.5 mCi, up to 30 minutes): The left and right kidneys and the bladder were clearly defined
Gamma camera count densities (RAI) ([2]; SnCl2 reduction method): significant count densities in regions where the right and left kidneys were visualized
Gamma camera count densities (RAI) ([2]; dithionite reduction method): significant count densities in regions where the right and left kidneys were visualized

Reference: US4434151A, “Bifunctional chelating agents” (Medi-Physics, Inc., priority 1982, dated 1984)
